Patent US20060193797A1, “Chroman derivatives as lipoxygenase inhibitors” (Galileo Pharmaceuticals, Inc, priority 2005, published 2006)

Assays:
[1] = target: T1, human recombinant 5-lipoxygenase (Homo sapiens, UniProt P09917); assay: 5-Lipoxygenase Enzyme Assay (colorimetric, ferric oxidation of xylenol orange); assay type: biochemical; settings: 70 μM arachidonic acid, 10 minute incubation at room temperature, 5 concentrations in triplicate starting at 10 μM; read-out: inhibition of 5-Lipoxygenase, IC50
T1 construct: purchased Cayman 60402
T1 sequence (P09917 1-674): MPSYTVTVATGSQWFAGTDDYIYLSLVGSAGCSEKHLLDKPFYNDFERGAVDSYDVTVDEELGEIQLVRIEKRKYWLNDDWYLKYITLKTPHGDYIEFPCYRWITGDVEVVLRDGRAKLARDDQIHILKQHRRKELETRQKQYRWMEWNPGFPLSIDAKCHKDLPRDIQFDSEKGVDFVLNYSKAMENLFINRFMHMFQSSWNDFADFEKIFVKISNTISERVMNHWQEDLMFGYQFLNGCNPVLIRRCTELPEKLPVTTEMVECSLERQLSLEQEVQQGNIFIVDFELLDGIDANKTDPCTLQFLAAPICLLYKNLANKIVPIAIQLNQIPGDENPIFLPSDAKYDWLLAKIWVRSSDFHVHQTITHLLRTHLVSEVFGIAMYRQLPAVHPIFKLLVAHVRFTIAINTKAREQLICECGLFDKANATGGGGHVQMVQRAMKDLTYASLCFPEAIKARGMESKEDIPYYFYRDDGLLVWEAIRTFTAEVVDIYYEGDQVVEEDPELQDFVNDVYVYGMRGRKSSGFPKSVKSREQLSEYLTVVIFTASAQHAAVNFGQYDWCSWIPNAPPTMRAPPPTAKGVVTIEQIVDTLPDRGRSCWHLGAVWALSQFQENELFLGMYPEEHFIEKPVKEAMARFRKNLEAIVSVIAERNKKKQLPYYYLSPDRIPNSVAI
Procedure: This procedure was used for measuring the enzymatic activity of human recombinant 5-lipoxygenase using a colorimetric method based on the ferric oxidation of xylenol orange.
Human recombinant 5-lipoxygenase (Cayman Cat # 60402) was used in this assay. The test compound and/or vehicle was added to 0.5 μL 5-lipoxygenase in 50 mM Tris-HCl buffer, pH 7.4. The reaction was initiated by addition of 70 μM arachidonic acid in Tris-HCl buffer, pH 7.4, and terminated after a 10 minute incubation at room temperature by addition of FOX reagent (25 mM sulfuric acid, 100 μM xylenol orange, 100 μM iron (II) sulphate, methanol:water 9:1). The yellow color of acidified xylenol orange was converted to a blue color by the lipid hydroperoxide-mediated oxidation of Fe^2+ ions and the interaction of the resulting Fe^3+ ions with the dye. The complex was allowed to form during a 1 hour incubation at room temperature with shaking. Absorbance of the Fe^3+ complex was then measured at […] using a spectrophotometer.
Negative controls contained enzyme during the incubation step but substrate was not added until after the FOX reagent. Compounds were screened at 5 concentrations in triplicate starting at 10 μM.

[2] = target: T2, porcine leukocyte 12/15-lipoxygenase (Sus scrofa, UniProt P16469); assay: 12/15-Lipoxygenase Enzyme Assay (colorimetric, ferric oxidation of xylenol orange); assay type: biochemical; settings: 70 μM arachidonic acid, 10 minute incubation at room temperature, 5 concentrations in triplicate starting at 10 μM; read-out: inhibition of 12/15-Lipoxygenase, IC50
T2 construct: purchased Cayman 60300
T2 sequence (P16469 1-663): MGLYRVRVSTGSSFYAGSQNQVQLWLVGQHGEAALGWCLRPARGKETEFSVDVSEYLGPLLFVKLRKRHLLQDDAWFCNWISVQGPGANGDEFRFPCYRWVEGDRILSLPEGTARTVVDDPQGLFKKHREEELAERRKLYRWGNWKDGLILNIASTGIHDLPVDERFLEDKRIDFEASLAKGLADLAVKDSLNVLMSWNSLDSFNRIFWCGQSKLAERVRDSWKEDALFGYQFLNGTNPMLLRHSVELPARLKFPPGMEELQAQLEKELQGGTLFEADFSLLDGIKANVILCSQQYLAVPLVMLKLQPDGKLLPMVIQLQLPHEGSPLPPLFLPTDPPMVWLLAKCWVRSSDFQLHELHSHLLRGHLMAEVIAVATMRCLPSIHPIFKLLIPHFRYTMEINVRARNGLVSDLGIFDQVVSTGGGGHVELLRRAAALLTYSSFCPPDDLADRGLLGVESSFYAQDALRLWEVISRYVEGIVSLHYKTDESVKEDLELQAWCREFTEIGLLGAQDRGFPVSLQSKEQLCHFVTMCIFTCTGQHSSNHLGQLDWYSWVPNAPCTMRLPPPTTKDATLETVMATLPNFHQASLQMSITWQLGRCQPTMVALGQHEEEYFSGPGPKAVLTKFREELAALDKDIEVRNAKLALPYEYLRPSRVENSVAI
Procedure: This procedure was used for measuring the enzymatic activity of porcine leukocyte 12/15-lipoxygenase using a colorimetric method based on the ferric oxidation of xylenol orange.
Porcine Leukocyte 12/15-lipoxygenase (Cayman Cat # 60300) was used in this assay. Test compound and/or vehicle were added to 1.3 μL 12/15-lipoxygenase in 50 mM Tris-HCl buffer, pH 7.4. The reaction was initiated by addition of 70 μM arachidonic acid in Tris-HCl buffer, pH 7.4 and terminated after a 10 minute incubation at room temperature by addition of FOX reagent (25 mM sulfuric acid, 100 μM xylenol orange, 100 μM iron (II) sulphate, methanol:water 9:1). The yellow color of acidified xylenol orange was converted to a blue color by the lipid hydroperoxide-mediated oxidation of Fe^2+ ions and the interaction of the resulting Fe^3+ ions with the dye. The complex was allowed to form during a 1 hour incubation at room temperature with shaking. Absorbance of the Fe^3+ complex was then measured at […] using a spectrophotometer.
Negative controls contained enzyme during the incubation step but substrate was not added until after the FOX reagent.
Compounds are screened at 5 concentrations in triplicate starting at 10 μM.

SMILES | IC50 [1] [µM] | IC50 [2] [µM]
Cc1c(C)c2c(c(C)c1O)C(O)CC(C)(C)O2 (centres unmarked) [2,2,5,7,8-pentamethylchroman-4,6-diol] | < 3 | < 5
Cc1c(O)cc2c(c1C)OC(C)(C)CC2O (centres unmarked) [2,2,7,8-tetramethylchroman-4,6-diol] | < 3 | 
CONC1CC(C)(C)Oc2c(C)c(C)c(O)c(C)c21 (centres unmarked) [4-Methoxyamino-2,2,5,7,8-pentamethyl-chroman-6-ol] | < 3 | < 5

The next lines start with the values.

IC50 [1] [µM] | IC50 [2] [µM] | SMILES
< 3 | < 5 | CON=C1CC(C)(C)Sc2c(C)c(C)c(O)c(C)c21 [6-Hydroxy-2,2,5,7,8-pentamethyl-thiochroman-4-one O-methyl-oxime]
 | < 5 | CO/N=C1/Cc2c(C)c(O)c(C)c(C)c2OC1(C)C [6-hydroxy-2,2,5,7,8-pentamethylchroman-3-one O-methyl oxime]
< 3 |  | Cc1c(C)c2c(c(C)c1O)C(=NN(C)C)CC(C)(C)O2 [6-Hydroxy-2,2,5,7,8-pentamethyl-2,3-dihydro-4H-chromen-4-one dimethylhydrazone]
< 3 | < 5 | CON=C1CC(C)(C)Oc2c(C)c(C)c(O)c(C)c21 [6-Hydroxy-2,2,5,7,8-pentamethyl-chroman-4-one O-methyl-oxime]
